One series addresses T1, Cytochrome P450 1A2 (Homo sapiens, UniProt P05177).
T1 sequence (P05177 whole entry): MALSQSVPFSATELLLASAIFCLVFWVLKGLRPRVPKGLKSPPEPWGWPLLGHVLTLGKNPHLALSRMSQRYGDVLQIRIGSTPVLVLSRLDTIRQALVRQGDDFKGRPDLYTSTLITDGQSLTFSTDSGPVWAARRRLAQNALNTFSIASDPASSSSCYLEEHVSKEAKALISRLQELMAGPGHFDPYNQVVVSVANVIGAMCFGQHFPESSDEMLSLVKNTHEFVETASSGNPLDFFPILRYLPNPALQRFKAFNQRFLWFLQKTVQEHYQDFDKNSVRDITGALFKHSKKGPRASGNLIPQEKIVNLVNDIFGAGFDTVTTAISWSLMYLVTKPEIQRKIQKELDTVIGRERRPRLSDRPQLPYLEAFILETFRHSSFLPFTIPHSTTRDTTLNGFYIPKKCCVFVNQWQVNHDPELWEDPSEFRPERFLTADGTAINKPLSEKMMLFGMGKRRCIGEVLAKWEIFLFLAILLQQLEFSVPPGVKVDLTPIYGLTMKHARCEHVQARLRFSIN
Briefly: Inhibition of CYP1A2 in human liver microsomes in presence of NADPH by LC-MS/MS analysis. Type of series: ADME. A general note: Microsomes from liver hold many membrane-bound enzymes, among them those of drug oxidation.

Series [1] can be described thus: Toxicity in iv dosed rat administered as single dose. Type of series: organism-based. The following applies: in vivo.
Series [2] deals with Enterobacter. The series is described as follows: Inhibition of beta lactamase KPC in carbapenem-resistant Enterobacter assessed as meropenem minimum concentration required for antibacterial activity at 4 ug/ml by broth microdilution method (reference value: 4 ug/ml). The following applies: dose 4.0 µg/ml. (In general: Broth dilution looks for growth in wells or tubes with falling amounts of substance.)

Series [3] in a line: Inhibition of beta lactamase OXA-48 in Enterobacter cloacae assessed as decrease in enzyme activity using nitrocefin as substrate preincubated for 10 mins followed by substrate addition measured for 10 mins by fluorescence plate reader analysis.
Series [4] concerns Acinetobacter baumannii. The series is described as follows: Potentiation of meropenem-induced antibacterial activity against Acinetobacter baumannii expressing OXA-23 assessed as meropenem MIC at 4 ug/ml by broth microdilution method (reference value: 32 ug/ml). Type of series: functional. The following applies: dose 4 µg/ml.
A short description of series [5]: Stability in rat plasma assessed as parent compound remaining after 1 hr. The following applies: read-out: Stabilty. The class given is ADME, cell-free.
Series [6] is described as follows: Volume of distribution in rat at 1 mg/kg, iv. Type of series: ADME, organism-based. The following applies: in vivo.
Series [7] deals with Klebsiella pneumoniae. Briefly: Antibacterial activity against Klebsiella pneumoniae expressing TEM-OSBL/CTX-M-14/OXA-48 by broth microdilution method. The class given is functional.
The subject of series [8] is Enterobacter. Briefly: Inhibition of beta lactamase KPC in carbapenem-resistant Enterobacter assessed as meropenem-induced antibacterial activity by measuring meropenem MIC50 at 4 ug/ml by broth microdilution method (Rvb >32 ug/ml). The following applies: dose 4.0 µg/ml.
Series [9] is described as follows: Stability in human plasma assessed as parent compound remaining after 1 hr. Type of series: ADME, cell-free. The following applies: read-out: Stabilty.
In series [10] the test system is Enterobacter. The series is described as follows: Inhibition of beta lactamase OXA in carbapenem-resistant Enterobacter assessed as meropenem maximum concentration required for antibacterial activity at 4 ug/ml by broth microdilution method (Rvb > 32 ug/ml). The following applies: dose 4.0 µg/ml.
Series [11] concerns Klebsiella pneumoniae. Briefly: Potentiation of meropenem-induced antibacterial activity against Klebsiella pneumoniae expressing SHV-11/OXA-121 assessed as meropenem MIC at 4 ug/ml by broth microdilution method (reference value: 16 ug/ml). Type of series: functional. The following applies: dose 4 µg/ml.
The subject of series [12] is Acinetobacter baumannii. The series is described as follows: Antibacterial activity against Acinetobacter baumannii expressing OXA-23 by broth microdilution method. The class given is functional.
For series [13], the system named is Klebsiella pneumoniae. Briefly: Antibacterial activity against Klebsiella pneumoniae expressing SHV-11/OXA-181 by broth microdilution method. Type of series: functional.

The IC50 is the concentration that inhibits the measured activity by half. A word on the Vd: it is a proportionality between amount in the body and measured concentration, not a real space. A lower Vd goes with confinement near the circulation. As to `O=C1N2C[C@@H](CC[C@H]2F)N1OS(=O)(=O)[O-].[Na+]`, the IC50 on Cytochrome P450 1A2 is over 50000 nM; in [3] it was 175 nM. Moreover, in [1], the MTD was at least 1000 mg/kg. Moreover, the MIC in the series on Enterobacter [2] is under 0.03 µg/mL; in the series on Acinetobacter baumannii [4] it was 2 µg/mL; with Klebsiella pneumoniae [7], 64 µg/mL; in the series with Klebsiella pneumoniae [11], 1 µg/mL; in the series with Acinetobacter baumannii [12], over 128 µg/mL; with Klebsiella pneumoniae [13] it was 128 µg/mL. Further, the values for the remaining at 1 h in [5] and in series [9] were 55% and 79%, respectively. The distribution volume (Vd) in series [6] is 2.2 L/kg. In addition, in the series on Enterobacter [8], the MIC50 amounted to 0.06 µg/mL. Further, the Activity in the series on Enterobacter [10] turned out to be 2 µg/mL.

The record behind these values is ChEMBL document CHEMBL4699665, “Discovery of ANT3310, a Novel Broad-Spectrum Serine β-Lactamase Inhibitor of the Diazabicyclooctane Class, Which Strongly Potentiates Meropenem Activity against Carbapenem-Resistant Enterobacterales and Acinetobacter baumannii” (J Med Chem, 2020).
